# According to patent US20100144591A1, “BENZIMIDAZOLE DERIVATIVES AND METHODS OF USE THEREOF” (Schering Corporation, priority 2007, published 2010):
# Test system: STZ-induced type 2 diabetic mice
# Experiment: In vivo effect on glucose levels in diabetic mice
# Conditions: 10 mg/kg/day in diet; relative to control mice and mice treated with rosiglitazone (5 mg/kg/day in diet)
# Method: The leftmost black solid bar represents diabetic control mice, the second from left black solid bar represents mice treated for one week with rosiglitazone at 5 mg/kg/day; the third from left black solid bar represents mice treated for one week with Compound 174 at 10 mg/kg/day; the fourth from left black solid bar represents mice treated for one week with Compound 174 at 1 mg/kg/day; and the white bar represents nondiabetic control mice. The y-axis indicates non-fasting glucose levels (mg/dl).
# Five-week-old male ICR mice were purchased from Taconic Farm (Germantown, N.Y.) and placed on a “western diet” containing 45% (kcal) fat from lard and 0.12% (w/w) cholesterol. After 3 weeks of feeding, the mice were injected once with low dose streptozocin (STZ, ip 75-100 mg/kg) to induce partial insulin deficiency. […] The diabetic mice were then placed in one of groups: (1) a non-treated diabetic control group, (2) a group treated with rosiglitazone (5 mg/kg/day in diet); (3) a group treated with Compound 174(10/mg/kg in diet) for four weeks; and (4) a group treated with Compound 174 (1/mg/kg in diet) for four weeks.
smiles,measurement,value
Nc1cc(CN2CCC(C(=O)N3CCC(n4c(-c5ccc(F)c(F)c5)nc5cccnc54)CC3)CC2)ccn1 [Compound 174],HbA1C levels,significantly reduced
same,non-fasting glucose levels,significantly reduced
